Results from BindingDB's records for doi:10.1021/acs.jmedchem.5b01840 (Norgine, 2016).

Assay: Antagonist activity at CCR9 receptor in human MOLT4 cells assessed as inhibition of CCl25-mediated cell migration preincubated for 30 mins followed CCL25 addition incubated for 2 hrs by ChemoTx plate system

`CC(C)(C)c1ccc(S(=O)(=O)Nc2ccc(Cl)c3c2C(=O)N(Cc2cccnc2)C3=O)cc1` [US9969687, Compound 64] and `CC(C)(C)c1ccc(S(=O)(=O)Nc2ccc(Cl)c3c2C(=O)N(Cc2ccncc2)C3=O)cc1` [US9969687, Compound 201] cannot be ordered by Ki: 357 nM for the first, > 100 nM for the second.

`CC(C)(C)c1ccc(S(=O)(=O)Nc2ccc(Cl)c3c2C(=O)N(Cc2ccc[n+]([O-])c2)C3=O)cc1` [US9969687, Compound 65] and `CC(C)(C)c1ccc(S(=O)(=O)Nc2ccc(Cl)c3c2C(=O)N(Cc2cccc[n+]2[O-])C3=O)cc1` [US9969687, Compound 199] are within 1.5-fold of each other in Ki: 38 nM for the first, 40 nM for the second.

Going from `COc1ccncc1N1C(=O)c2c(Cl)ccc(NS(=O)(=O)c3ccc(C(C)(C)C)cc3)c2C1=O` [US9969687, Compound 119] to `COc1ncccc1N1C(=O)c2c(Cl)ccc(NS(=O)(=O)c3ccc(C(C)(C)C)cc3)c2C1=O` [US9969687, Compound 183], the Ki rises from 3 nM to 32 nM (11-fold). The first binds more tightly here.

Going from `Cc1ncccc1N1C(=O)c2c(Cl)ccc(NS(=O)(=O)c3ccc(C(C)(C)C)cc3)c2C1=O` [US9969687, Compound 175] to `CC(C)(C)c1ccc(S(=O)(=O)Nc2ccc(Cl)c3c2C(=O)N(c2cccnc2F)C3=O)cc1` [US9969687, Compound 218], the Ki rises from 14 nM to 91 nM (6.5-fold). The first binds more tightly here.

Compared with `Cc1c(N2C(=O)c3c(Cl)ccc(NS(=O)(=O)c4ccc(C(C)(C)C)cc4)c3C2=O)ccc[n+]1[O-]` [US9969687, Compound 176], `COc1c(N2C(=O)c3c(Cl)ccc(NS(=O)(=O)c4ccc(C(C)(C)C)cc4)c3C2=O)ccc[n+]1[O-]` [US9969687, Compound 194] is 4.7-fold higher in Ki: 24 nM for the first, 113 nM for the second.

Going from `CC(C)(C)c1ccc(S(=O)(=O)Nc2ccc(Cl)c3c2C(=O)N(c2ccccn2)C3=O)cc1` [US9969687, Compound 222] to `Cc1cccc(N2C(=O)c3c(Cl)ccc(NS(=O)(=O)c4ccc(C(C)(C)C)cc4)c3C2=O)n1` [US9969687, Compound 228], the Ki rises from 9 nM to 19 nM (2.1-fold). The first binds more tightly here.

With `Cc1ccc(N2C(=O)c3c(Cl)ccc(NS(=O)(=O)c4ccc(C(C)(C)C)cc4)c3C2=O)c(C)n1` [US9969687, Compound 224] the Ki was > 300 nM.
